Experiments:
pigweed = experiment: Test B pre/postemergence pigweed; assay type: in vivo, Amaranthus retroflexus
How it was run: (§1)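 Response is a visual 0-to-10 score relative to untreated plants, where 0 means no effect and 10 means complete control, taken twelve to sixteen days after application. Treatments went onto soil at planting and onto foliage of 1- to 4-leaf plants, using a surfactant-containing non-phytotoxic solvent.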

morningglory = experiment: Test B pre/postemergence morningglory; assay type: in vivo, Ipomoea hederacea
How it was run: as §1

giant foxtail = experiment: Test B pre/postemergence giant foxtail; assay type: in vivo, Setaria faberii
How it was run: as §1

[1] = Postemergence, Rate 125 g/ha, scale of 0 to 10 where 0 is no effect and 10 is complete control
[2] = Preemergence, Rate 62 g/ha, scale 0 to 10 (0 no effect, 10 complete control)
[3] = Preemergence, Rate 125 g/ha, 0 is no effect, 10 is complete control
[4] = Preemergence, Rate 250 g/ha, scale 0 to 10, 0 is no effect, 10 is complete control
[5] = Preemergence, Rate 500 g/ha, scale 0 to 10 (0 no effect, 10 complete control)
[6] = Rate 62 g/ha, Postemergence, scale of 0 to 10 where 0 is no effect and 10 is complete control
[7] = Rate 250 g/ha, Postemergence, scale 0 to 10, 0 is no effect, 10 is complete control
[8] = Rate 500 g/ha, Postemergence, scale 0 to 10
[9] = Preemergence, Rate 62 g/ha, scale of 0 to 10 where 0 is no effect and 10 is complete control
[10] = Preemergence, Rate 250 g/ha, scale of 0 to 10 where 0 is no effect and 10 is complete control
[11] = Preemergence, Rate 500 g/ha, scale of 0 to 10 where 0 is no effect and 10 is complete control
[12] = Rate 62 g/ha, Postemergence, scale 0 to 10, 0 no effect, 10 complete control
[13] = Rate 125 g/ha, Postemergence, scale of 0 to 10 where 0 is no effect and 10 is complete control
[14] = Rate 250 g/ha, Postemergence, scale of 0 to 10 where 0 is no effect and 10 is complete control
[15] = Preemergence, Rate 125 g/ha, scale 0 to 10 (0 no effect, 10 complete control)
[16] = Preemergence, Rate 500 g/ha, scale 0 (no effect) to 10 (complete control)
[17] = Rate 500 g/ha, Postemergence, scale 0 to 10, 0 no effect, 10 complete control
[18] = Postemergence, Rate 250 g/ha, scale 0 to 10, 0 no effect, 10 complete control
[19] = Postemergence, Rate 250 g/ha, scale 0 to 10
[20] = Postemergence, Rate 500 g/ha, scale of 0 to 10 where 0 is no effect and 10 is complete control
[21] = Preemergence, Rate 125 g/ha, scale of 0 to 10 where 0 is no effect and 10 is complete control
[22] = Preemergence, Rate 500 g/ha, scale 0 to 10, 0 is no effect, 10 is complete control
[23] = Rate 125 g/ha, Postemergence, scale 0 to 10, 0 is no effect, 10 is complete control
[24] = Postemergence, Rate 62 g/ha, scale 0 to 10, 0 is no effect, 10 is complete control
[25] = Rate 125 g/ha, Postemergence, scale 0 to 10, 0 no effect, 10 complete control
[26] = Postemergence, Rate 1000 g/ha, scale 0 to 10 (0 no effect, 10 complete control)
[27] = Rate 500 g/ha, Postemergence, 0 to 10 scale (0 no effect, 10 complete control)
[28] = Rate 1000 g/ha, Preemergence, scale 0 to 10 (0 no effect, 10 complete control)

SMILES: CCOC(=O)Cn1c(=O)on(C(=O)N(c2ccc(F)cc2)C(C)C)c1=O [Compound 128]
- Redroot pigweed plant response rating (pigweed; [1]): 0
- Redroot pigweed plant response rating (pigweed; [2]): 0
- Redroot pigweed plant response rating (0 to 10 scale) (pigweed; [3]): 0
- Redroot pigweed plant response rating (pigweed; [4]): 0
- Redroot pigweed plant response rating (pigweed; [5]): 0
- Redroot pigweed plant response rating (pigweed; [6]): 0
- Plant response rating, Redroot pigweed (pigweed; [7]): 0
- Redroot pigweed plant response rating (pigweed; [8]): 0
- Morningglory plant response rating (morningglory; [1]): 0
- Morningglory plant response rating (morningglory; [2]): 0
- Morningglory plant response rating (0 to 10 scale) (morningglory; [3]): 0
- Morningglory plant response rating (morningglory; [4]): 0
- Morningglory plant response rating (morningglory; [5]): 0
- Morningglory plant response rating (morningglory; [6]): 0
- Plant response rating, Morningglory (morningglory; [7]): 0
- Morningglory plant response rating (morningglory; [8]): 0
- Giant foxtail plant response rating (giant foxtail; [1]): 0
- Giant foxtail plant response rating (giant foxtail; [2]): 0
- Giant foxtail plant response rating (0 to 10 scale) (giant foxtail; [3]): 0
- Giant foxtail plant response rating (giant foxtail; [4]): 0
- Giant foxtail plant response rating (giant foxtail; [5]): 8
- Giant foxtail plant response rating (giant foxtail; [6]): 0
- Plant response rating, Giant foxtail (giant foxtail; [7]): 0
- Giant foxtail plant response rating (giant foxtail; [8]): 0

SMILES: Cc1ccccc1-n1c(=O)on(C(=O)N(c2ccncc2)C(C)C)c1=O [Compound 301]
- Redroot pigweed plant response rating (pigweed; [9]): 0
- Redroot pigweed plant response rating (0 to 10 scale) (pigweed; Preemergence, Rate 125 g/ha): 0
- Redroot pigweed plant response rating (pigweed; [10]): 0
- Redroot pigweed plant response rating (pigweed; [11]): 0
- Redroot pigweed plant response rating (pigweed; [12]): 0
- Redroot pigweed plant response rating (pigweed; [13]): 0
- Plant response rating, Redroot pigweed (pigweed; [14]): 0
- Morningglory plant response rating (morningglory; [9]): 0
- Morningglory plant response rating (0 to 10 scale) (morningglory; Preemergence, Rate 125 g/ha): 0
- Morningglory plant response rating (morningglory; [10]): 0
- Morningglory plant response rating (morningglory; [11]): 0
- Morningglory plant response rating (morningglory; [12]): 0
- Morningglory plant response rating (morningglory; [13]): 0
- Plant response rating, Morningglory (morningglory; [14]): 0
- Giant foxtail plant response rating (giant foxtail; [9]): 0
- Giant foxtail plant response rating (0 to 10 scale) (giant foxtail; Preemergence, Rate 125 g/ha): 0
- Giant foxtail plant response rating (giant foxtail; [10]): 0
- Giant foxtail plant response rating (giant foxtail; [11]): 0
- Giant foxtail plant response rating (giant foxtail; [12]): 0
- Giant foxtail plant response rating (giant foxtail; [13]): 0
- Plant response rating, Giant foxtail (giant foxtail; [14]): 0

SMILES: CCc1noc(C)c1-n1c(=O)on(C(=O)N(c2ccc(F)cc2)C(C)C)c1=O [Compound 101]
- Redroot pigweed plant response rating (pigweed; [1]): 0
- Redroot pigweed plant response rating (pigweed; [2]): 0
- Plant response rating, Redroot pigweed (pigweed; [15]): 0
- Plant response rating, Redroot pigweed (pigweed; [10]): 0
- Redroot pigweed plant response rating (pigweed; [16]): 0
- Redroot pigweed plant response rating (pigweed; [6]): 0
- Plant response rating, Redroot pigweed (pigweed; [7]): 0
- Redroot pigweed plant response rating (pigweed; [17]): 0
- Morningglory plant response rating (morningglory; [1]): 0
- Morningglory plant response rating (morningglory; [18]): 1
- Morningglory plant response rating (morningglory; [2]): 0
- Plant response rating, Morningglory (morningglory; [15]): 0
- Plant response rating, Morningglory (morningglory; [10]): 0
- Morningglory plant response rating (morningglory; [16]): 0
- Morningglory plant response rating (morningglory; [6]): 0
- Morningglory plant response rating (morningglory; [17]): 1
- Giant foxtail plant response rating (giant foxtail; [1]): 0
- Giant foxtail plant response rating (giant foxtail; [18]): 0
- Giant foxtail plant response rating (giant foxtail; [2]): 0
- Plant response rating, Giant foxtail (giant foxtail; [15]): 0
- Plant response rating, Giant foxtail (giant foxtail; [10]): 0
- Giant foxtail plant response rating (giant foxtail; [16]): 0
- Giant foxtail plant response rating (giant foxtail; [6]): 0
- Giant foxtail plant response rating (giant foxtail; [17]): 0

SMILES: CC(C)N(C(=O)n1oc(=O)n(CCl)c1=O)c1ccc(F)cc1F [Compound 437]
- Redroot pigweed plant response rating (pigweed; [19]): 0
- Redroot pigweed plant response rating (pigweed; [20]): 0
- Plant response rating, Redroot pigweed (pigweed; [9]): 0
- Plant response rating, Redroot pigweed (pigweed; [21]): 0
- Redroot pigweed plant response rating (pigweed; [4]): 0
- Redroot pigweed plant response rating (pigweed; [22]): 0
- Redroot pigweed plant response rating (pigweed; [12]): 0
- Redroot pigweed plant response rating (pigweed; [23]): 0
- Morningglory plant response rating (morningglory; [19]): 4
- Morningglory plant response rating (morningglory; [20]): 9
- Plant response rating, Morningglory (morningglory; [9]): 0
- Plant response rating, Morningglory (morningglory; [21]): 0
- Morningglory plant response rating (morningglory; [4]): 0
- Morningglory plant response rating (morningglory; [22]): 0
- Morningglory plant response rating (morningglory; [12]): 0
- Morningglory plant response rating (morningglory; [23]): 1
- Giant foxtail plant response rating (giant foxtail; [19]): 0
- Giant foxtail plant response rating (giant foxtail; [20]): 7
- Plant response rating, Giant foxtail (giant foxtail; [9]): 0
- Plant response rating, Giant foxtail (giant foxtail; [21]): 0
- Giant foxtail plant response rating (giant foxtail; [4]): 0
- Giant foxtail plant response rating (giant foxtail; [22]): 3
- Giant foxtail plant response rating (giant foxtail; [12]): 0
- Giant foxtail plant response rating (giant foxtail; [23]): 0

SMILES: Cc1ccccc1-n1c(=O)on(C(=O)N(c2cc(F)ccc2F)C(C)C)c1=O [Compound 68]
- Redroot pigweed plant response rating (pigweed; [24]): 0
- Redroot pigweed plant response rating (pigweed; [18]): 0
- Redroot pigweed plant response rating (pigweed; [2]): 0
- Plant response rating, Redroot pigweed (pigweed; [15]): 2
- Plant response rating, Redroot pigweed (pigweed; [10]): 7
- Redroot pigweed plant response rating (pigweed; [16]): 10
- Redroot pigweed plant response rating (pigweed; [25]): 0
- Redroot pigweed plant response rating (pigweed; [17]): 0
- Morningglory plant response rating (morningglory; [24]): 2
- Morningglory plant response rating (morningglory; [18]): 2
- Morningglory plant response rating (morningglory; [2]): 0
- Plant response rating, Morningglory (morningglory; [15]): 0
- Plant response rating, Morningglory (morningglory; [10]): 0
- Morningglory plant response rating (morningglory; [16]): 0
- Morningglory plant response rating (morningglory; [25]): 2
- Morningglory plant response rating (morningglory; [17]): 3
- Giant foxtail plant response rating (giant foxtail; [24]): 0
- Giant foxtail plant response rating (giant foxtail; [18]): 0
- Giant foxtail plant response rating (giant foxtail; [2]): 5
- Plant response rating, Giant foxtail (giant foxtail; [15]): 9
- Plant response rating, Giant foxtail (giant foxtail; [10]): 10
- Giant foxtail plant response rating (giant foxtail; [16]): 10
- Giant foxtail plant response rating (giant foxtail; [25]): 0
- Giant foxtail plant response rating (giant foxtail; [17]): 0

SMILES: CCN(CC)C(=O)n1oc(=O)n(-c2ccc(OC(F)(F)F)cc2)c1=O [Compound 12]
- Redroot pigweed plant response rating (pigweed; [18]): 0
- Redroot pigweed plant response rating (pigweed; [26]): 0
- Plant response rating, Redroot pigweed (pigweed; [15]): 0
- Plant response rating, Redroot pigweed (pigweed; [10]): 0
- Redroot pigweed plant response rating (pigweed; [16]): 0
- Redroot pigweed plant response rating (pigweed; [25]): 0
- Redroot pigweed plant response rating (pigweed; [27]): 0
- Plant response rating, Redroot pigweed (pigweed; [28]): 0
- Morningglory plant response rating (morningglory; [18]): 0
- Morningglory plant response rating (morningglory; [26]): 0
- Plant response rating, Morningglory (morningglory; [15]): 0
- Plant response rating, Morningglory (morningglory; [10]): 0
- Morningglory plant response rating (morningglory; [16]): 0
- Morningglory plant response rating (morningglory; [25]): 0
- Morningglory plant response rating (morningglory; [27]): 0
- Plant response rating, Morningglory (morningglory; [28]): 0
- Giant foxtail plant response rating (giant foxtail; [18]): 0
- Giant foxtail plant response rating (giant foxtail; [26]): 0
- Plant response rating, Giant foxtail (giant foxtail; [15]): 0
- Plant response rating, Giant foxtail (giant foxtail; [10]): 0
- Giant foxtail plant response rating (giant foxtail; [16]): 2
- Giant foxtail plant response rating (giant foxtail; [25]): 0
- Giant foxtail plant response rating (giant foxtail; [27]): 0
- Plant response rating, Giant foxtail (giant foxtail; [28]): 8

Source: patent US6737383B1, “Herbicidal oxadiazolidines” (priority 1999, dated 2004)
